Measurements from patent publication US20030217378A1, “Cloning using rapidly matured oocytes” (The University of Georgia Research Foundation, Inc, priority 2002, published 2003).
Several values for one entry are separate records, joined by “and”; a condition that tells them apart may be missing. Identical values can stand only once.

Tests used:
Format in all cases: cell-based
[1] = test system: porcine oocytes; experiment: Experiment 1: meiotic resumption of porcine oocytes cultured in maturation medium with 1 mM dbcAMP
Description: (§1) Ovaries were collected from prepubertal gilts at a local slaughterhouse and transported to the laboratory at 30-35° C. Antral follicles (2-5 mm in diameter) were aspirated with an 18-gauge needle using vacuum suction (40 mm Hg). […] Oocytes were cultured in 4-well plates (Nunc, Roskilde, Denmark) containing 500 μl of each medium. TCM-199 (Gibco) supplemented with 3.05 mM D-glucose, 0.91 mM Na-pyruvate, 0.57 mM cysteine, 10 ng/ml epidermal growth factor (Sigma), 10 IU/ml eCG (Sioux Biochemicals, Sioux Center, Iowa), 10 IU/ml hCG (Intervet, Millsboro, Del.), and 10% (v:v) porcine follicular fluid was used as a basic maturation medium.
After culture for each period, degenerated oocytes with lysed cytoplasmic membranes were removed.

[2] = test system: porcine oocytes; experiment: Experiment 2: maturation to metaphase II of porcine oocytes treated with dbcAMP for 20 h, then cultured without dbcAMP; settings: 1 mM dbcAMP for 20 h
Description: as §1
Oocytes continued to be cultured for additional 4, 10, 16, and 22 h and examined for meiotic progression to the M II stage by staining with 5 μg/ml Hoechst 33342.

[3] = test system: porcine embryos reconstituted with 42-h-matured oocytes; experiment: Experiment 5: in vitro development of porcine nuclear transfer embryos reconstituted with 42-h-matured oocytes treated with dbcAMP
Description: as §1
At the end of maturation, cumulus cells were removed by vortexing with 0.1% (w:v) hyaluronidase (Sigma) and denuded oocytes were transferred into 100 μl of Hepes-buffered TCM-199 with the osmolarity adjusted to 300 mOsm by adding sorbitol supplemented with 7.5 μg/ml cytochalasin B (Sigma) and 10% FCS (manipulation medium). The first polar body and MII plate were removed by aspiration with a 15-μm inner diameter glass pipette. The oocytes had been previously stained in the manipulation medium supplemented with 5 μg/ml Hoechst 33342 (Sigma) for 20 min and confirmation of successful enucleation was achieved by visualizing the cytoplast and removed cytoplasm under ultraviolet light. After enucleation, a donor cell was inserted into the perivitelline space of each enucleated oocyte using the same glass pipette. Cell-oocyte complexes were washed in TCM-199 supplemented with 10% FCS, transferred to the same medium and kept in a CO2 incubator adjusted to 5% CO2 in air at 38.5° C. until fusion.
The chamber for fusion was a 100 mm dish filled with 15 ml of Zimmerman fusion medium, Zimmerman, et al., Electric field-induced cell-to-cell fusion. J Membr Biol 1982, 67: 165-182. Two stainless steel wires (100 μm diameter) were used as electrodes and they were attached to micromanipulators. The single cell-oocyte complex was sandwiched between the electrodes and oriented with the contact surface between the cytoplast and the donor cell perpendicular to the electrodes. The distance between the electrodes was about 100 μm. Membrane fusion was induced by applying a single direct current pulse of 250 V/mm for a duration of 20 μsec with a prepulse of alternating current field of 5 V, 1 MHz for 2 sec using an LF 101 Fusion Machine (TR Tech Co., Tokyo, Japan). Following the fusion pulse, the complexes were washed in G1.2 medium, Gandhi, et al., Substrate utilization in porcine embryos cultured in NCSU23 and G1.2/G2.2 sequential culture media, Mol Reprod Dev 2001, 58: 269-275 and cultured for a period of 1 h in 100 μl of the same medium. Fusion was then determined by microscopic examination.
At 3 h after fusion, fused embryos were washed once in Zimmerman fusion medium and then placed between 2 wire electrodes (1 mm apart) of the fusion chamber slide with 15 ml of the medium. Direct current pulses of 75 V/mm were applied twice to the embryos for a duration of 60 μsec at intervals of 5 sec. Activated embryos were incubated in 100 μl of G1.2 medium supplemented with 7.5 μg/ml cytochalasin B for 2 h after activation to prevent extrusion of polar bodies, Miyoshi, et al. (2000) (supra), and then transferred into G1.2 medium. After culture in G 1.2 medium for 3 days, the embryos were transferred into 100 μl of G2.2 medium, Gandhi, et al., (2001) (supra), and continued to be cultured. The embryos were examined for cleavage and blastocyst formation at 2 and 7 days of culture, respectively. At the end of the culture period, all blastocysts were counted for nuclei after Hoechst staining. The blastocysts were placed on slides with a drop of mounting medium consisting of glycerol and PBS (9: 1) containing 0.1 mg/ml Hoechst 33342. A cover slip was placed on the top of the blastocysts and the edge was sealed with fingernail polish. The numbers of nuclei were counted under ultraviolet light. […]

[4] = then 4 h additional culture without dbcAMP
[5] = then 10 h additional culture without dbcAMP
[6] = then 16 h additional culture without dbcAMP
[7] = then 22 h additional culture without dbcAMP
[8] = oocytes treated with 1 mM dbcAMP for 20 h, 42-h-matured, examined at 2 days of culture
[9] = oocytes treated with 1 mM dbcAMP for 20 h, 42-h-matured, examined at 7 days of culture
[10] = oocytes treated with 1 mM dbcAMP for 20 h, M II oocytes collected at 42 h of maturation

## CCCC(=O)Nc1ncnc2c1ncn2[C@@H]1O[C@@H]2COP(=O)(O)O[C@H]2[C@H]1OC(=O)CCC [dbcAMP, dibutyryl cyclic AMP]
[1]; 16 h of culture
  No. of oocytes at the germinal vesicle stage: 49
  oocytes at the germinal vesicle stage (%), percentage (mean ± SEM) of oocytes examined: 77.8% and 77.8 ± 3.2%
[1]; 20 h of culture
  No. of oocytes at the germinal vesicle stage: 43
  oocytes at the germinal vesicle stage (%), percentage (mean ± SEM) of oocytes examined: 72.9% and 72.9 ± 10.4%
[1]; 24 h of culture
  No. of oocytes at the germinal vesicle stage: 33
  oocytes at the germinal vesicle stage (%), percentage (mean ± SEM) of oocytes examined: 54.1 ± 7.0%
[1]; 42 h of culture
  No. of oocytes at the germinal vesicle stage: 27
  oocytes at the germinal vesicle stage (%), percentage (mean ± SEM) of oocytes examined: 44.3% and 44.3 ± 2.6%
[1]; at each culture period (16, 20, 24, 42 h), P<0.05
  effect of addition of dbcAMP on the percentage of GV oocytes versus absence: increased
[2]; at 10 h of additional culture, P<0.05
  effect of addition of dbcAMP on the percentage of M II oocytes versus absence: decreased
[2]; [4]
  No. of oocytes at the metaphase II stage: 30
  oocytes at the metaphase II stage (%), percentage (mean ± SEM) of oocytes examined: 35.3% and 35.3 ± 9.2%
[2]; [5]
  No. of oocytes at the metaphase II stage: 25
  oocytes at the metaphase II stage (%), percentage (mean ± SEM) of oocytes examined: 29.8% and 29.8 ± 1.4%
[2]; [6]
  No. of oocytes at the metaphase II stage: 54
  oocytes at the metaphase II stage (%), percentage (mean ± SEM) of oocytes examined: 67.5% and 67.5 ± 8.4%
[2]; [7]
  No. of oocytes at the metaphase II stage: 69
  oocytes at the metaphase II stage (%), percentage (mean ± SEM) of oocytes examined: 85.2 ± 5.0%
[3]; 42-h-matured oocytes
  difference in mean numbers of cells in the blastocysts between presence and absence of dbcAMP treatment: no significant difference
  difference in percentages of fused cell-oocyte complexes, cleaved embryos and embryos developed to blastocysts between presence and absence of dbcAMP treatment: no significant differences
[3]; oocytes treated with 1 mM dbcAMP for 20 h, 42-h-matured, blastocysts at end of culture
  Mean no. ± SEM of cells in blastocysts: 49.0 ± 7.0
[3]; [8]
  No. of embryos developed to ≧2-cell: 48
  embryos developed to ≧2-cell (%), percentage (mean ± SEM) of complexes fused: 41.4 ± 8.3%
[3]; [9]
  No. of embryos developed to Blastocyst: 2
  embryos developed to Blastocyst (%), percentage (mean ± SEM) of complexes fused: 1.7 ± 1.5%
[3]; [10]
  No. of complexes fused: 116
  complexes fused (%), percentage (mean ± SEM) of complexes treated: 80.0 ± 4.5%
